Test results reported in PMC10096344 (Molecules, 2023).

Tests used:
[1] = test system: P. aeruginosa (ATCC27853); experiment: Transcriptome assay (RNA-seq); type: cell-based, Pseudomonas aeruginosa; conditions: LP4C 10 μg/mL vs Vehicle Treatment Group
Method: The RNA sequencing was performed using Illumina HiSeq4000 according to the operation instructions (Illumina, CA, USA). Differential gene expression analysis of LP4C treatment and control groups was conducted; KEGG signaling pathway analysis was performed to map the connection of multiple genes.

[2] = test system: S. typhimurium TA97; experiment: Bacterial reverse mutation assay (Ames assay); type: cell-based, Salmonell typhimurium; conditions: n = 3
Method: (§1) A sample of 2-aminofluorene (10 μg/plate) was used for TA97, TA98, TA100 +S9 test strains, while 1,8-dihydroxyanthraquinone (60 μg/plate) was used for the TA102 +S9 test strain. The histidine was added with the same amount. The plates were incubated for 48 h at 37 °C; the number of colonies was then counted per plate.

[3] = test system: S. typhimurium TA100; experiment: Bacterial reverse mutation assay (Ames assay); type: cell-based, Salmonell typhimurium; conditions: n = 3
Method: as §1

[4] = test system: S. typhimurium TA98; experiment: Bacterial reverse mutation assay (Ames assay); type: cell-based, Salmonell typhimurium; conditions: n = 3
Method: as §1

[5] = test system: S. typhimurium TA102; experiment: Bacterial reverse mutation assay (Ames assay); type: cell-based, Salmonell typhimurium; conditions: n = 3
Method: as §1

[6] = test system: pyr genes (pyrA, pyrB, pyrC, pyrD, pyrE and pyrF); experiment: RT-PCR (qPCR) of pyr genes; type: cell-based, Pseudomonas aeruginosa; conditions: LP4C 10 μg/mL vs control
Method: The total RNA was isolated from P. aeruginosa cultures, and qPCR amplification was performed according to the instrument of the quantitative PCR system (Stratagene Mx3005P, Agilent, USA); the thermal cycler was then initiated by denaturation procedure for 2 min at 93 °C followed by 40 cycles of 1 min at 93 °C and 2 min at 55 °C. The gene-specific PCR primers were listed in Supplementary Table S3. The relative expression of genes was analyzed by the 2^−ΔΔCt method with normalization to gyrB level.

[7] = test system: C57BL/6 mice; type: in vivo
Method: All animals were closely observed every day for three weeks. The body weight and toxic effects were monitored and the survival rate was calculated. At the end of experiment, the survival mice were euthanized; vital organs, including heart, liver, lung, kidney and spleen, were then excised, weighed and preserved for histopathological observation.

[8] = test system: P. aeruginosa (ATCC27853); experiment: Anti-bacterial activity, inhibition zone diameter on agar; type: cell-based, Pseudomonas aeruginosa; conditions: LP4C 5, 10, 50, 100, 200 μg/mL
Method: P. aeruginosa (ATCC27853) was cultured in 3 mL LB culture medium, shaken at 220 rpm for 12 h at 37 °C and diluted to 1 × 10^6 CFU/mL. The culture disk was coated with 1% agar, and 100 μL bacterial suspension was added to the agar in the disk evenly. […] LP4C or reference antibiotics were then added in each hole. The disk was cultured for 12–16 h at 37 °C; the result was then observed and the inhibition zone diameter was measured.

[9] = test system: S. typhimurium strains TA97, TA98, TA100 and TA102; experiment: Bacterial reverse mutation assay (Ames assay), all strains; type: cell-based, Salmonell typhimurium
Method: as §1

[10] = test system: HUVEC (human umbilical vein endothelial cell); experiment: Cytotoxicity test, CCK-8; type: cell-based
Method: (§2) Optical density was calculated by the microplate reader (BioTek flx800, Berten, USA).

[11] = test system: CCC-HHM-2 (human embryonic myocardial tissue cell); experiment: Cytotoxicity test, CCK-8; type: cell-based
Method: as §2

[12] = Pharmacokinetics measurement; type: in vivo; conditions: SD rats; for plasma half-life: single dose
[13] = 200 μg/mL vs anti-biofilm concentration of LP4C
[14] = LP4C under 200 μg/mL, 24 h, vs vehicle

Compound: N#CC1=C(N)Oc2c(c(=O)oc3ccccc23)C1c1cc(C(F)(F)F)cc(C(F)(F)F)c1 (stereo not drawn) [LP4C]
- most enriched pathway of DEGs (transcriptome) [1]: the DEGs number of pyrimidine metabolism was the most enriched
- number of bacterial revertant colonies ([2]; LP4C 50 μg/plate, TA97, +S9, mean ± SD): 142 ± 7.13
- number of bacterial revertant colonies ([2]; LP4C 50 μg/plate, TA97, −S9, mean ± SD): 123 ± 5.92
- number of bacterial revertant colonies ([2]; LP4C 200 μg/plate, TA97, +S9, mean ± SD): 140 ± 8.55
- number of bacterial revertant colonies ([2]; LP4C 200 μg/plate, TA97, −S9, mean ± SD): 122 ± 7.42
- number of bacterial revertant colonies ([2]; LP4C 1000 μg/plate, TA97, +S9, mean ± SD): 142 ± 5.96
- number of bacterial revertant colonies ([2]; LP4C 1000 μg/plate, TA97, −S9, mean ± SD): 119 ± 8.52
- number of bacterial revertant colonies ([2]; LP4C 2000 μg/plate, TA97, +S9, mean ± SD): 140 ± 6.47
- number of bacterial revertant colonies ([2]; LP4C 2000 μg/plate, TA97, −S9, mean ± SD): 120 ± 8.53
- number of bacterial revertant colonies ([2]; LP4C 5000 μg/plate, TA97, +S9, mean ± SD): 141 ± 7.65
- number of bacterial revertant colonies ([2]; LP4C 5000 μg/plate, TA97, −S9, mean ± SD): 112 ± 9.83
- number of bacterial revertant colonies ([3]; LP4C 50 μg/plate, TA100, +S9, mean ± SD): 130 ± 7.68
- number of bacterial revertant colonies ([3]; LP4C 50 μg/plate, TA100, −S9, mean ± SD): 117 ± 5.96
- number of bacterial revertant colonies ([3]; LP4C 200 μg/plate, TA100, +S9, mean ± SD): 133 ± 7.34
- number of bacterial revertant colonies ([3]; LP4C 200 μg/plate, TA100, −S9, mean ± SD): 116 ± 6.42
- number of bacterial revertant colonies ([3]; LP4C 1000 μg/plate, TA100, +S9, mean ± SD): 131 ± 6.75
- number of bacterial revertant colonies ([3]; LP4C 1000 μg/plate, TA100, −S9, mean ± SD): 120 ± 8.33
- number of bacterial revertant colonies ([3]; LP4C 2000 μg/plate, TA100, +S9, mean ± SD): 132 ± 6.95
- number of bacterial revertant colonies ([3]; LP4C 2000 μg/plate, TA100, −S9, mean ± SD): 120 ± 5.71
- number of bacterial revertant colonies ([3]; LP4C 5000 μg/plate, TA100, +S9, mean ± SD): 130 ± 5.69
- number of bacterial revertant colonies ([3]; LP4C 5000 μg/plate, TA100, −S9, mean ± SD): 122 ± 7.67
- number of bacterial revertant colonies ([4]; LP4C 50 μg/plate, TA98, +S9, mean ± SD): 32 ± 3.6
- number of bacterial revertant colonies ([4]; LP4C 50 μg/plate, TA98, −S9, mean ± SD): 26 ± 2.2
- number of bacterial revertant colonies ([4]; LP4C 200 μg/plate, TA98, +S9, mean ± SD): 33 ± 4.1
- number of bacterial revertant colonies ([4]; LP4C 200 μg/plate, TA98, −S9, mean ± SD): 26 ± 4.8
- number of bacterial revertant colonies ([4]; LP4C 1000 μg/plate, TA98, +S9, mean ± SD): 32 ± 4.7
- number of bacterial revertant colonies ([4]; LP4C 1000 μg/plate, TA98, −S9, mean ± SD): 25 ± 5.4
- number of bacterial revertant colonies ([4]; LP4C 2000 μg/plate, TA98, +S9, mean ± SD): 32 ± 5.8
- number of bacterial revertant colonies ([4]; LP4C 2000 μg/plate, TA98, −S9, mean ± SD): 26 ± 6.7
- number of bacterial revertant colonies ([4]; LP4C 5000 μg/plate, TA98, +S9, mean ± SD): 31 ± 5.2
- number of bacterial revertant colonies ([4]; LP4C 5000 μg/plate, TA98, −S9, mean ± SD): 24 ± 3.5
- number of bacterial revertant colonies ([5]; LP4C 50 μg/plate, TA102, +S9, mean ± SD): 276 ± 11.2
- number of bacterial revertant colonies ([5]; LP4C 50 μg/plate, TA102, −S9, mean ± SD): 260 ± 10.3
- number of bacterial revertant colonies ([5]; LP4C 200 μg/plate, TA102, +S9, mean ± SD): 281 ± 9.36
- number of bacterial revertant colonies ([5]; LP4C 200 μg/plate, TA102, −S9, mean ± SD): 271 ± 5.68
- number of bacterial revertant colonies ([5]; LP4C 1000 μg/plate, TA102, +S9, mean ± SD): 279 ± 10.6
- number of bacterial revertant colonies ([5]; LP4C 1000 μg/plate, TA102, −S9, mean ± SD): 267 ± 8.35
- number of bacterial revertant colonies ([5]; LP4C 2000 μg/plate, TA102, +S9, mean ± SD): 280 ± 11.3
- number of bacterial revertant colonies ([5]; LP4C 2000 μg/plate, TA102, −S9, mean ± SD): 262 ± 8.44
- number of bacterial revertant colonies ([5]; LP4C 5000 μg/plate, TA102, +S9, mean ± SD): 273 ± 12.6
- number of bacterial revertant colonies ([5]; LP4C 5000 μg/plate, TA102, −S9, mean ± SD): 256 ± 9.21
- expression of pyr genes [6]: could inhibit the expression of pyr genes significantly
- survival rate vs Control ([7]; 20 mg/kg to 320 mg/kg intragastric, three weeks): not a significant difference in the survival rate
- death and toxicity signs ([7]; 20, 40 and 80 mg/kg intragastric, three-week period): no death and obvious toxicity sign was observed
- histopathological changes (H&E) of heart, liver, lung, kidney and spleen ([7]; intragastric, vs control groups): no obvious pathological change was observed, except the slight hemorrhagic phenomena that occurred in the liver section in the 320 mg/kg LP4C Treatment Group
- growth inhibition / bactericidal activity (inhibition zone) [8]: no bactericidal activity
- number of bacterial revertant colonies vs DMSO negative control ([9]; LP4C 50 μg/plate to 5000 μg/plate): did not increase
- mutagenic potential ([9]; LP4C 50 to 5000 μg/plate, ±S9): no obvious mutagenic potential
- non-toxic concentration relative to anti-biofilm concentration [10, 13]: at least 40 times
- cell viability (CCK-8) [10, 14]: the cell viability was not affected
- non-toxic concentration relative to anti-biofilm concentration [11, 13]: at least 40 times
- cell viability (CCK-8) [11, 14]: the cell viability was not affected
- time during which blood concentration increased after administration ([12]; intragastric 10 mg/kg): ≤ 4 h
- bioavailability ([12]; intragastric 10 mg/kg vs intravenous 5 mg/kg): 46.35%
- plasma half-life ([12]; intragastric 10 mg/kg): 11 ± 1.26 h
- time during which serum concentration declined rapidly ([12]; intravenous 5 mg/kg): 10 to 60 min
- plasma half-life ([12]; intravenous 5 mg/kg): 14 ± 3.05 h
